From PubChem BioAssay (NCI)
“And” between values parts separate entries of the source, which are not always exact repeats. Equal values may be shown once.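 Cultured in 96-well plates, cells were exposed to test compound for 48 hours across five concentrations. GI50 is the concentration that inhibits growth by half. Definition used: TGI = concentration required for complete inhibition of growth.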 Where a SMILES comes first, the peptide text is derived from it. [ ]: non-standard residue; d: D form. pGlu = O=C1CC[CH](C(=O)O)N1

Experiments:
Test in all cases: growth of human tumour cells (NCI), 48 h
[1] = system: HOP-92 NSCLC
[2] = system: HT29 colon
[3] = system: M14 melanoma
[4] = system: NCI-H226 lung
[5] = system: OVCAR-3 ovarian
[6] = system: OVCAR-4 ovarian
[7] = system: OVCAR-8 ovarian
[8] = system: SNB-19 CNS
[9] = system: TK-10 renal
[10] = system: U251 CNS

SMILES	GI50 [1] [µM]	TGI [1]	GI50 [2] [µM]	TGI [2]	GI50 [3] [µM]	TGI [3]	GI50 [4] [µM]	TGI [4]	GI50 [5] [µM]	TGI [5]	GI50 [6] [µM]	TGI [6] [µM]	GI50 [7] [µM]	TGI [7]	GI50 [8] [µM]	TGI [8]	GI50 [9] [µM]	TGI [9]	GI50 [10] [µM]	TGI [10]
C[C@@]1(C(=O)O)CCC[C@]2(C)C1CC[C@@]13CC(=O)[C@@](CO)(CC[C@]12O)C3 (some centres undefined)	11.7	97.8 µM	> 100	> 100 µM	> 100	> 100 µM	> 100	> 100 µM	> 100	> 100 µM	> 100	> 100	> 100	> 100 µM	90.7	> 100 µM	> 100	> 100 µM	> 100	> 100 µM
COc1cccc(N2CCN(CC(=O)N3CCN(c4nnc(-c5ccc(Cl)cc5)c(-c5ccc(Cl)cc5)n4)CC3)CC2)c1	14.7	36.4 µM	6.47	> 100 µM	30.2	> 100 µM	88.3	> 100 µM	36.9	> 100 µM	25.3	> 100	29.4	> 100 µM	37.9	> 100 µM	17.3	85.9 µM	16.7	> 100 µM
CSC(=Nc1nnc(-c2ccc([N+](=O)[O-])cc2)s1)SC		33.1 µM		> 100 µM		> 100 µM		> 100 µM		> 89.7 µM		> 85		> 100 µM		63.2 µM		44.8 µM		58.1 µM
CN(/N=C/c1cccc2cccnc12)c1ccc([N+](=O)[O-])cc1[N+](=O)[O-]		42.7 µM		> 100 µM		> 94.4 µM		64.4 µM		39.8 µM		> 70.3		> 100 µM		40.2 µM		54 µM		29.1 µM
CCN1C(=O)N(CC)C2C1NN=c1s/c(=C\c3cccc(F)c3)c(=O)n12 (centres undefined)	1.44	> 79.8 µM	0.0859	> 100 µM	0.0727	> 100 µM	0.24	> 100 µM	0.17	> 100 µM	5.37	> 100	0.345	> 100 µM	0.263	> 100 µM	27.2	> 100 µM	0.21	> 100 µM
CCNC(=O)C1CCCN1C(=O)C(CCCN=C(N)N)NC(=O)C(CC(C)C)NC(=O)C(CC(C)C)NC(=O)C(Cc1ccc(O)cc1)NC(=O)C(CO)NC(=O)C(Cc1c[nH]c2ccccc12)NC(=O)C(Cc1cnc[nH]1)NC(=O)C1CCC(=O)N1 (centres undefined) ([pGlu]HWSYLLRP-NHEt; configuration not given here)	> 100	> 100 µM	> 100	> 100 µM	> 100	> 100 µM	> 100	> 100 µM	> 100	> 100 µM	> 100	> 100	> 100	> 100 µM	> 100	> 100 µM	> 100	> 100 µM	> 100	> 100 µM
COC(=O)C1CC23CCCN4CCC5(c6ccccc6N(C=O)C15CC2)C43 (centres undefined)		> 100 µM		> 100 µM		> 100 µM		> 100 µM		> 100 µM		> 100		> 100 µM		> 100 µM		> 100 µM		> 100 µM
O=C(Oc1cccc(F)c1OC(=O)c1cccc(O)c1)c1cccc(O)c1	46.6	> 100 µM	41.8	> 100 µM	34.1	> 100 µM	45.3	> 100 µM	4.82	45.7 µM	15.2	> 100	22.8	> 100 µM	99.6	> 100 µM	98.6	> 100 µM	17.8	> 100 µM
C[C@]12CC[C@@H]3c4ccc(OC(=O)N(CCCl)CCCl)cc4CC[C@H]3[C@@H]1CC[C@@H]2O	9.04	43.2 µM and 6.51 µM	2.41		1.61	11.5 µM	3.98	22.3 µM	0.691	4.56 µM	4.36	39.5	3.85		7.04		3.04	9.98 µM	2.58	13.8 µM and 26.9 µM
C=C(C)C(O)CCC1(C)C=Cc2c(c(C)cc3c2[nH]c2ccccc23)O1 (centres undefined)	10.3	25 µM and 22.8 µM	1.71	8.53 µM and 3.26 µM	6.63	10.9 µM and 19.7 µM		22.7 µM and 21.7 µM	10.3	24 µM and 22 µM		30.8	10.7	25 µM and 22.9 µM	11.5	25 µM and 23.6 µM	14	> 25 µM and 27 µM		11.1 µM and 17.6 µM
O=C(CCCCCCNC(=O)c1cnc(N(c2ccccc2)c2ccccc2)nc1)NO	2.13	15.7 µM	2.29	> 35.4 µM	3.57	> 100 µM	16.6	> 91.4 µM	2.71	15.3 µM	5.56	72.9	2.25	> 100 µM	3.67	31.3 µM	2.07	12.5 µM	3	15.6 µM
CC(=O)NC1C(OC[C@@H](CC(=O)N[C@@H](CC(=O)O)CC(=O)N[C@H](CC(=O)N[C@@H](CCCN)CC(=O)N[C@@H](CCCN)CC(=O)N[C@H](CC(N)=O)C(C)C)C(C)C)NC(=O)C[C@@H](N)C(C)C)OC(CO)C(O)C1O (some centres undefined)	> 100	> 100 µM	> 100	> 100 µM	> 100	> 100 µM	> 100	> 100 µM	> 100	> 100 µM	> 100	> 100	> 100	> 100 µM	> 100	> 100 µM	> 100	> 100 µM	> 100	> 100 µM
C/C(=N\NC(=S)N1CC2CCC(CC2)C1)c1nccs1		7.21 µM		15.9 µM		1.6 µM		4.7 µM		19.8 µM		17.6		13.1 µM		15.1 µM		15.9 µM		6.43 µM
CCOC(=O)C12CCCC1(O)N(NC(=O)OC(C)(C)C)C(C)=C2C(=O)OC (centres undefined)		> 100 µM		> 100 µM		> 100 µM		> 100 µM		> 100 µM		> 100		> 100 µM		> 100 µM		> 100 µM		> 100 µM
COc1ccc(C(=S)N2CCN(c3cccc(C)c3)CC2)cc1OC	10.5	91.4 µM	3.3	> 100 µM	3.18	> 100 µM	> 100	> 100 µM	2.06	5.16 µM	57.7	> 100	8.47	> 100 µM	6.61	> 100 µM	7.99	> 100 µM	5.8	> 100 µM
C=CCN=c1sc2c(n1NC(=O)c1cc3ccc1CCc1ccc(cc1)CC3)C(=O)c1ccccc1C2=O	1.56	4.19 µM	3.09	> 100 µM	1.63	3.3 µM	1.61	3.35 µM	0.328	1.43 µM	1.26	2.56	2.13	11.2 µM	1.67	3.44 µM	4.48	8.14 µM	1.6	4.28 µM
CCc1ccccc1NC(=O)C1=C(C)NC(C)=C(C(=O)Nc2ccccc2CC)C1c1ccccc1Cl		> 100 µM		> 100 µM		> 100 µM		> 100 µM		> 100 µM		> 100		> 100 µM		> 100 µM		> 100 µM		> 100 µM
O=C(O)CN(CC(=O)O)Cc1cc(C#Cc2ccc(C#Cc3ccccc3)cc2)cc(CN(CC(=O)O)CC(=O)O)n1		99.6 µM		> 100 µM		> 76.6 µM		58.7 µM		> 39.9 µM		56		> 60.6 µM		> 77 µM		> 86.2 µM		57.6 µM
